From patent publication US10961203B2, “Crystalline forms of 3-Z-[1-(4-(N-((4-methyl-piperazin-1-yl)-methylcarbonyl)-N-methyl-amino)-phenylamino)-1-phenyl-methylene]-6-methoxycarbonyl-2-indolinone” (Allgenesis Biotherapeutics Inc., priority 2017, dated 2021)

Test: Stability test of Crystalline Form F of Nintedanib (XRPD after storage)
Format: physicochemical
Conditions: polyethylene bag in desiccator, no humidity control, room temperature, three months; FIG. 15 before, FIG. 23 after
Experimental: In each example, XRPD experiment was conducted using a Bruker D8 advance diffractometer, with a Cu Ka (wavelength 1.54056 Å) filled tube (40 kV, 40 mA) as the X-ray source having a wide angle goniometer, a 0.6 mm divergent slit, a 2.5° primary Sola slit, a 2.5° secondary Sola slit, an 8 mm anti-scattering slit, a 0.1 mm detector slit, and Lynx Eye detector, at room temperature. In a 2θ continuous scanning mode, the data acquisition was completed with a scanning speed of 2.4°/min and a scanning step of 0.02° in the range of 3° to 40°.
Crystalline Form F of Nintedanib obtained with the preparation method in Example 5 was placed in a polyethylene plastic bag, the plastic bag was then placed in a desiccator with no humidity control at room temperature for three months (from April 12 to July 12).

In the case of `COC(=O)c1ccc2c(c1)NC(=O)/C2=C(\Nc1ccc(N(C)C(=O)CN2CCN(C)CC2)cc1)c1ccccc1` [Crystalline Form F, 3-Z-[1-(4-(N-((4-methyl-piperazin-1-yl)-methylcarbonyl)-N-methyl-amino)-phenylamino)-1-phenyl-methylene]-6-methoxycarbonyl-2-indolinone], the “crystalline form by XRPD after storage (stability of Crystalline Form F)” value is reported as “all the measurements showed a result of Crystalline Form F”.
